As usually defined, the IC50 is the point on the concentration scale where inhibition reaches its midpoint. Low readings indicate greater potency in that assay, high ones weaker potency in that assay. Usually TGI stands for the reduction of tumour growth relative to the control group. A low value points to little slowing of growth.

This note sets out measurements from patent EP4588485A1, “PHARMACEUTICAL COMBINATION OF FAK INHIBITOR AND TOPOISOMERASE INHIBITOR AND USE THEREOF” (Inxmed (Nanjing) Co., Ltd., priority 2022, dated 2024).

Data set [1] relates to MDA-MB-231 cells. Nature of the data set: Apoptosis by Annexin V flow cytometry after FAK siRNA silencing plus topoisomerase inhibitor. The class given is cell-based. As to conditions: FAK siRNA 50 nM for 24 hours, then 2 µM drug for 48 hours; FAK silencing group compared with control siRNA group; Fig. 1 / Fig. 3. On the technique in general: In flow cytometry, cells or beads pass a laser one at a time.
Experimental: The siRNA technology was used in the in vitro assay to reduce the expression level of FAK, and combined with Etoposide for 48 hours; flow cytometry was used to detect apoptosis in control and FAK silenced cells.
Assay antibodies: recombinant Alexa Fluor® 647 fluorescent Anti-Calreticulin antibody (Abcam, ab196159), Annexin V apoptosis detection kit (Invitrogen, A35110).
MDA-MB-231 cells were transfected with control siRNA or FAK siRNA at a final concentration of 50 nM, respectively. After the transfection for 24 hours, the cells were treated with 2 µM of Etoposide for 48 hours. The cells were stained using Annexin V kit and detected by flow cytometry. The early and late apoptotic values were counted, compared with those of the DMSO control group, and plotted using Graphpad 8.0.
The siRNA technology was used in the in vitro assays to reduce the expression level of FAK, and combined with Teniposide for 48 hours; flow cytometry was used to detect apoptosis in control and FAK silenced cells. […]
MDA-MB-231 cells were transfected with control siRNA or FAK siRNA at a final concentration of 50 nM, respectively. […] The cells were stained using Annexin V kit and detected by flow cytometry. The early and late apoptosis values were counted, compared with those of the DMSO control group, and plotted using Graphpad 8.0.

Data set [2] has as its system MDA-MB-231 cells. The data set can be described thus: Calreticulin release and exposure by flow cytometry after FAK siRNA silencing plus topoisomerase inhibitor. The settings on record: FAK siRNA 50 nM for 24 hours, then 2 µM drug for 48 hours; compared with control siRNA; Fig. 2 / Fig. 4. The format is cell-based.
Experimental: The siRNA technology was used in the in vitro assay to reduce the expression level of FAK, and combined with Etoposide for 48 hours. Flow cytometry was used to detect the expression of Calreticulin, the main target of ICD.
MDA-MB-231 cells were transfected with control siRNA or FAK siRNA at a final concentration of 50 nM, respectively. After the transfection for 24 hours, the cells were treated with 2 µM of Etoposide for 48 hours. The cells were fluorescent stained with Calreticulin antibody, and the staining results were analyzed by flow cytometry.
The siRNA technology was used in the in vitro assay to reduce the expression level of FAK, and combined with Teniposide for 48 hours. Flow cytometry was used to detect the expression of Calreticulin, the main target of ICD.
MDA-MB-231 cells were transfected with control siRNA or FAK siRNA at a final concentration of 50 nM, respectively. After the transfection for 24 hours, the cells were treated with 2 µM Teniposide for 48 hours. The cells were fluorescent stained with Calreticulin antibody, and the staining results were analyzed by flow cytometry.
Data set [3] deals with CT26 cells. Nature of the data set: CCK-8 cell proliferation inhibition. The class given is cell-based. The settings on record: Mus musculus, single drug, 72 hours, CCK8, OD450.
Experimental: CT26 cells were cultured with RPMI-1640 (Shanghai Basalmedia, catalog number: L210KJ, batch number: F210916) + 10% FBS (Gibco, catalog number: 10099-141c, batch number: 2158737cp), and passaged twice. When the cells were in good condition, they were placed in a 96-well plate, 3000 cells/well. […] 10 drug concentrations were set. The first concentration was 30 µM, which was serially diluted 5-fold, and the last one was the control, with the drug concentration of 0. Each drug concentration was run in triplicate. At the same time, another group of cells was established with the same drug concentration as that in the above method.
10 µl of CCK8 detection reagent (Cellorlab, classification number: CX001M, batch number: 2571100) was added to each well, and the plate was incubated in a 5% CO2 incubator at 37 °C for 2-4 hours. Then the plate was read using microplate reader OD450 (chemiluminescence method). […]
CT26 cells were digested with trypsin, and then the cells were collected and counted. […]
After 72 hours of drug action, 10 µL of CCK-8 detection reagent was added to each well of the cell plate using a multi-channel pipette, and then the cell plate was incubated in a 37 °C, 5% CO2 incubator for another 4 hours. Finally, the absorbance of each well at 450 nm was measured using an ELISA reader. […]
Data set [4] concerns MC38 mouse colorectal cancer cells. The data set can be described thus: In vivo antitumor efficacy in subcutaneous allograft tumor model. Also on record: species or system C57BL/6 mice. As to the method:
Table 12: Animal groups and dosing regimens for in vivo efficacy assays
(§1) • 1. N: number of mice in each group; • 2. Dosing volume: 10 mL/kg based on the mouse body weight. If the body weight dropped by more than 15%, the administration of the animals would be stopped; When the body weight recovered to 90%, the administration would be resumed. • 3. The Etoposide dose was increased to 6 mg/kg on the 6th day after grouping and dosing;
Colorectal cancer cells MC38 (from Nanjing Cobioer Biotechnology Co., Ltd., article number: CBP60825) were maintained and passaged by InxMed (Nanjing) Co., Ltd. Cells were cultured in monolayer in vitro under the following conditions: DMEM medium with 10% fetal bovine serum, in a 37°C, 5% CO2 incubator. Cells were routinely digested and passaged two to three times a week using trypsin-EDTA. When the cells were in the exponential growth phase and the adherent confluence reached 80%-90%, the cells were harvested, counted, and then inoculated.
0.1 mL of cell suspension containing 2×10^5 cells was subcutaneously inoculated on the right back of each mouse. When the tumor volume reached about 50 mm^3 (9th day after cell inoculation), the mice were randomly divided into groups and administered according to the tumor volume. Table 13: Test substance and control solvent preparation
The assay index was to examine whether the tumor growth was inhibited, delayed, or cured. Tumor diameters were measured three times a week using calipers. The tumor volume was calculated using the formula: V = 0.5 × a × b^2, where a and b represent the long and short diameters of the tumor, respectively.
The anti-tumor efficacy of the compound was evaluated by TGI (%), which reflected the tumor growth inhibition rate. Based on the tumor volume on the first day after grouping, the tumor growth inhibition rate TGI (%) was calculated according to the following formula: TGI (%) = [1 - (average tumor volume of an administration group - average tumor volume of the administration group at the beginning of treatment) / (average tumor volume of the solvent control group - average tumor volume of the solvent control group at the beginning of treatment)] × 100%.
Statistical analysis was based on tumor volume at the end of the assay using Prism Graphpad software. Comparisons between multiple groups were analyzed using Two-way ANOVA and Fisher's LSD test. A P-value of less than 0.05 was considered statistically significant.
After cell inoculation, tumor growth was observed every day. On the 9th day after inoculation, mice were grouped based on tumor volume. The average tumor volume at enrollment was approximately 50 mm^3.

The conditions of data set [5]: day 17 after group administration, 6 mice per group; deaths due to tumor rupture. The protocol:
as §1
The formulation and any modifications of this assay protocol had been assessed and approved by the IACUC of ArrayBridge. The use and welfare of assay animals were carried out in accordance with AAALAC regulations. The health status and mortality of animals were monitored daily, with routine checks including observation of tumor growth and the impact of drug treatment on the animals' daily behavior, such as activity, food and water intake (estimated by visual inspection), changes in body weight, physical signs, or any other abnormalities. The number of animal deaths and side effects in each group were recorded based on the number of animals in each group.
The assay was carried out according to the dosing regimen. During the assay, the animals' activities such as eating and drinking were observed every day, and the body weight of the animals was recorded three times a week. […]

Data set [6] concerns CT26 cells. Nature of the data set: Microscope observation of cell status after 48 hours of drug action. The format is cell-based, mouse. The settings on record: IN10018 5 µM; for cell status observed under a microscope: Etoposide 20 µM, Fig. 6; for cell status observed under a microscope (cell death / cell viability): Teniposide 4.8 µM. The protocol: CT26 cells (Institute of Cell Biology, Chinese Academy of Sciences) were cultured with RPMI-1640 (Shanghai Basalmedia, catalog number: L210KJ, batch number: F210916) + 10% FBS (Gibco, catalog number: 10099-141c, batch number: 2158737cp), and passaged twice. When the cells were in good condition, they were placed in a 24-well plate. After 24 hours of cell spreading, four groups were set up. The first group was the control group, in which culture medium was added; the second group was IN10018 at a concentration of 5µM; the third group was Etoposide (source: MCE, classification number: 33419-42-0, batch number: 113741) with a concentration of 20 µM; and the fourth group was a combination group of IN10018 (5 µM) and Etoposide (20 µM). The drugs were mixed and cultured in a 5 % CO2 incubator at 37°C for 48 hours.
After 48 hours of drug action, the cells were observed and photographed under a microscope. The photos were saved. Then the cells were collected for flow cytometry, and the cells were washed twice with flow buffer (PBS + 2% FBS). 0.5 µl of AF647 anti-Calreticulin antibody (abcam, catalog number: ab196159, batch number: CR33676773) was added to each well, and fully mixed. The cells were incubated at 4 °C for 20 minutes in the dark. After 20 minutes, the cells were washed twice with flow buffer (PBS + 2% FBS). Cell apoptosis detection kit (Beyotime, catalog number: CL062L, batch number: 021921210811) was used. 195 µl of Annexin-V-FITC binding solution was added, and the cells were gently mixed. 5 µl of annexin-V-FITC antibody was added, and the mixture was gently mixed. 10 µl of PI dye was added and gently mixed. The mixture was incubated at room temperature in the dark for 15 minutes, and then analyzed on a flow cytometer.
After 48 hours of drug action, the cells were photographed using a microscope, then trypsinized and collected for flow cytometry staining.

With `COc1cc([C@@H]2c3cc4c(cc3[C@@H](O[C@@H]3O[C@@H]5CO[C@@H](c6cccs6)O[C@H]5[C@H](O)[C@H]3O)[C@H]3COC(=O)[C@H]23)OCO4)cc(OC)c1O` [Teniposide], in data set [1], the “apoptosis (early and late apoptotic values)” value is “significantly enhanced”. Besides, in data set [2], the “release and exposure of Calreticulin” value is recorded as “significantly enhanced”. In data set [3], this molecule showed an IC50 of 0.818 µM.

In the case of `COc1cc([C@@H]2c3cc4c(cc3[C@@H](O[C@@H]3O[C@@H]5CO[C@@H](C)O[C@H]5[C@H](O)[C@H]3O)[C@H]3COC(=O)[C@H]23)OCO4)cc(OC)c1O` [Etoposide], the “Tumor volume on day 17” value in data set [4] (17th day after group administration, Etoposide 3 mg/kg PO QD (6 mg/kg from the 6th day), IN10018 25 mg/kg PO QD, PD-L1 antibody 5 mg/kg i.p. BIW, mean ± SD) came out at 2420.2±1377.3 mm^3. Moreover, the “Tumor volume on day 0” value in data set [4] (baseline on the day of grouping, mean ± SD, 6 mice per group) was determined as 48.2 ± 10.2 mm^3. Moreover, in data set [4] (day 17 vs. control group, Etoposide 3 mg/kg PO QD (6 mg/kg from the 6th day), IN10018 25 mg/kg PO QD, PD-L1 antibody 5 mg/kg i.p. BIW), the TGI was 9.5%. Besides, the “inhibitory effect on tumor growth” value in data set [4] (in words, compared with the blank control group, whole dosing cycle, Fig. 11) is “no inhibitory effect”. Besides, the “Animal Survival” value in data set [5] is 5/6. In addition, in data set [6], the “cell status observed under a microscope” value is “poor” and the “cell status observed under a microscope (cell death / cell viability)” value is on record as “obvious”. Also, in data set [1], the “apoptosis (early and late apoptotic values)” value is reported as “significantly enhanced”. Besides, the “release and exposure of Calreticulin” value in data set [2] is listed as “significantly enhanced”. In data set [3], this molecule yielded an IC50 of 24.4 µM.

Turning to `COc1cc(C(=O)NC2CCN(C)CC2)c(F)cc1Nc1ncc(C(F)(F)F)c(Oc2cccc3c2C(=O)N(C)C3)n1` [IN10018], in data set [6], the “cell status observed under a microscope” value is reported as “good” and the “cell status observed under a microscope (cell death / cell viability)” value was “better”.
